Reference: patent US20240299401A1, “NOVEL REDOX-BASED THERAPEUTIC APPROACH FOR TREATMENT OF CANCER” (THE PENN STATE RESEARCH FOUNDATION, priority 2020, published 2024)
Counter-ions that a name gives are not always drawn. Like-named read-outs stand apart in the source and are kept apart here.

Experiments:
A549 = experiment: WST-1 cytotoxicity, A549; assay type: cell-based, human
Experimental: (§1) Two different cytotoxicity/proliferation kit was used in this study i.e., WST-1 proliferation assay kit (Roche, Indianapolis, IN, USA; Cat #28620000) and Cell-titer Glo-luminescent cell viability assay (Promega, WI, USA; Cat #0000348721). Majority of the cell proliferation/cytotoxicity experiments were performed with WST-1 assay. Briefly, cells were seeded at the indicated density for 24 h in 96 well plate, media was replaced, and subsequently treated with the test compounds at different doses. […] Cell titer Glo-assay was additionally performed in certain cases to validate the results from WST-1 assay as outlined above following manufacturer's instructions and luminescence was measured using a FLx100 Luminometer (CLARIOSTAR®, Ortenbery, Germany). […] Other proliferation/cytotoxicity assays were also carried out i.e., Quant™-iT PicoGreen ds DNA assay kit (Thermo Scientific, Rockwood, TN, USA, P7589) following manufacturer's instructions, Trypan blue (Sigma, Ayrshire, UK, T8154) and acid phosphatase assay for validation of cytotoxicity/proliferation data from other assays.

H661 = experiment: WST-1 cytotoxicity, H661; assay type: cell-based, human; settings: 24 h
Experimental: as §1

NB4 = experiment: WST-1 cytotoxicity, NB4; assay type: cell-based, human
Experimental: as §1

HL60 = experiment: WST-1 cytotoxicity and synergy analysis, HL60; assay type: cell-based, human
Experimental: as §1

[1] = tested on: extracellular reduced thiols; experiment: Extracellular thiols measurement (DTDP method); assay type: cell-based, human; settings: for extracellular reduced thiols levels: MCF7 cells; for thiols efflux: A549 and H1299, 24 h, Erastin 5 μM, MSG 50 mM, Sorafenib 2.5 μM, trans-2,4-PDC 100 μM
Experimental: Cell culture media was collected at specified time points after incubation with the respective compounds as described in the respective figure legends and extracellular total thiols were measured using the DTDP method 19. The protocol was adjusted to 96-well plate format. […] Absorbance was measured at 324 nm in a spectrophotometer (PowerWave HT, BioTek, VT, USA). The assay mixture with fresh media was used as a blank.

H1299 = experiment: WST-1 cytotoxicity, H1299; assay type: cell-based, human
Experimental: as §1

MCF-7 = experiment: WST-1 cytotoxicity, MCF-7; assay type: cell-based, human
Experimental: as §1

ATF4 = settings: HEK293 ATF4 reporter; tunicamycin 2.5 μM, other compounds 5.0 μM; 24 h
Experimental: The next day, media was replaced with respective compounds as described. Twenty-four hours post-treatment, media were aspirated and replaced with 1:1 ratio of PBS:Bright Glo luciferase reagent mix (Promega, Madison, WI, USA) according to manufacturer's protocol. Cells were incubated in the dark for 10 min at room temperature with gentle rocking and luciferase activity was measured using an FLx100 Luminometer (CLARIOSTAR®, Ortenbery, Germany). In parallel, the same setup was made, and the cells were used to monitor the proliferation/toxicity of individual exposed compounds. Luciferase signal is normalized to the to the proliferation/toxicity of the individual compounds. Bortezomib (50 nM, Sigma-Aldrich, St. Louis, MO, USA), a known agonist for ATF4, was used as a positive control.
The next day, old media was replaced with media containing the respective compounds as described in the figure legends. […] Cells were incubated in the dark for 10 min at room temperature with gentle rocking and luciferase activity was measured using an FLx100 Luminometer (CLARIOSTAR®, Ortenbery, Germany). […] In parallel, the same setup was made, and the cells were used to monitor the proliferation/toxicity of individual compounds. Luciferase signal was normalized to correct for the proliferation/toxicity of the individual compounds. […] For ATF4 reporter assay, Hek293T reporter cells 20 were cultured similarly as indicated for MCF7 cells, except for seeding density was set at 300 cells/mm2. All other experimental set up was similar.

SLC7A11 = SLC7A11 mRNA expression (qRT-PCR); settings: HL60 and H1299 cells
[2] = tested on: 23 different human cell lines of multiple cancer origins; experiment: Cytotoxicity across the cancer cell line panel (summary statements); assay type: cell-based
Experimental: as §1

U1906E = experiment: WST-1 cytotoxicity, U1906E; assay type: cell-based; settings: Homo sapiens; U1906E; alone; 24 h; read-out: Calculated IC50 values
Experimental: as §1

U1906L = experiment: WST-1 cytotoxicity, U1906L; assay type: cell-based; settings: Homo sapiens; U1906L; alone; 24 h; read-out: Calculated IC50 values
Experimental: as §1

THP-1 = experiment: WST-1 cytotoxicity, THP-1; assay type: cell-based; settings: Homo sapiens; THP-1; alone; 24 h; read-out: Calculated IC50 values
Experimental: as §1

AML193 = experiment: WST-1 cytotoxicity, AML193; assay type: cell-based; settings: Homo sapiens; AML193; alone; 24 h; read-out: Calculated IC50 values
Experimental: as §1

HepG2 = experiment: WST-1 cytotoxicity, HepG2; assay type: cell-based; settings: Homo sapiens; HepG2; alone; 24 h; read-out: Calculated IC50 values
Hep3B = experiment: WST-1 cytotoxicity, Hep3B; assay type: cell-based; settings: Homo sapiens, alone, 24 h, read-out: Calculated IC50 values
Experimental: as §1

HUH7 = experiment: WST-1 cytotoxicity, HUH7; assay type: cell-based; settings: Homo sapiens, Huh-7; HUH7; alone; 24 h; read-out: Calculated IC50 values
Experimental: as §1

SHSY5-SY = experiment: WST-1 cytotoxicity, SHSY5-SY; assay type: cell-based; settings: Homo sapiens; SHSY5-SY; alone; 24 h; read-out: Calculated IC50 values
Experimental: as §1

SNB-19 = experiment: WST-1 cytotoxicity, SNB-19; assay type: cell-based; settings: Homo sapiens; SNB-19; alone; 24 h; read-out: Calculated IC50 values
Experimental: as §1

8-MGBA = experiment: WST-1 cytotoxicity, 8-MGBA; assay type: cell-based; settings: Homo sapiens, 8-MG-BA; 8-MGBA; alone; 24 h; read-out: Calculated IC50 values
Experimental: as §1

LS174T = experiment: WST-1 cytotoxicity, LS174T; assay type: cell-based; settings: Homo sapiens, alone, 24 h, read-out: Calculated IC50 values
Experimental: as §1

HeLa = experiment: WST-1 cytotoxicity, HeLa; assay type: cell-based; settings: Homo sapiens, alone, 24 h, read-out: Calculated IC50 values
Experimental: as §1

PANC-1 = experiment: WST-1 cytotoxicity, PANC-1; assay type: cell-based; settings: Homo sapiens; PANC-1; alone; 24 h; read-out: Calculated IC50 values
Experimental: as §1

A375 = experiment: WST-1 cytotoxicity, A375; assay type: cell-based; settings: Homo sapiens, A-375; A375; alone; 24 h; read-out: Calculated IC50 values
Experimental: as §1

IGROV1 = experiment: WST-1 cytotoxicity, IGROV1; assay type: cell-based, human; settings: IGROV1; alone; 24 h; dose up to 200 μM
Experimental: as §1

OV2008 = experiment: WST-1 cytotoxicity, OV2008; assay type: cell-based; settings: Homo sapiens; OV2008; alone; 24 h; read-out: Calculated IC50 values
Experimental: as §1

[3] = Toxicity in black mice (C57BL/6), 3 weeks; assay type: in vivo; settings: sodium selenite or selenocystine 3 mg/kg, alone or with diphenyl diselenide 50 and 100 mg/kg
Experimental: Black mice (C57BJ/6) mice were treated perorally every second day with either vehicle (canola oil) or diphenyl diselenide at two different dose levels (50 and 100 mg/kg body weight) for 3 weeks. Final body weight and weight of the major organs were measured at necropsy.
Black mice (C57BJ/6) mice were treated with vehicle (PBS i.p. and canola oil p.o.), sodium selenite (3 mg/kg body weight), selenocystine (3 mg/kg body weight), or in combinations with two different doses of diphenyl diselenide (50 and 100 mg/kg body weight) for 3 weeks. Final body weight and weight of the major organs were measured at necropsy.

[4] = Reported oral administration of selenocystine in humans; assay type: in vivo, human; settings: assuming 15% of 100 mg daily dose bioavailable, blood volume 5 L
[5] = orally, 50-200 mg/day for 49 days; human; cited from earlier work
[6] = tested on: Primary peripheral blood mononuclear cells; experiment: WST-1 cytotoxicity, primary PBMCs; settings: Homo sapiens, PBMC, 24 h, read-out: Calculated IC50 values
[7] = tested on: Primary Human hepatocytes; experiment: WST-1 cytotoxicity, primary human hepatocytes; settings: Hepatocyte, 24 h, read-out: Calculated IC50 values
[8] = Homo sapiens, A549 (Lung), compound alone, 24 h, '>' = dose approximation, read-out: IC50 values
[9] = Homo sapiens, NCI-H661, H661 (Lung), compound alone, '>' = dose approximation, read-out: IC50 values
[10] = Homo sapiens, NB-4, NB4 (Leukemia), compound alone, 24 h, '>' = dose approximation, read-out: IC50 values
[11] = Homo sapiens, HL-60, HL60 (Leukemia), compound alone, 24 h, '>' = dose approximation, read-out: IC50 values
[12] = H1299 (Lung), compound alone, 24 h, '>' = dose approximation, read-out: IC50 values
[13] = MCF7 (Breast), compound alone, 24 h, '>' = dose approximation, read-out: IC50 values

## COC(=O)/C=C/C(=O)OC [Dimethyl fumarate, reference compound]
A549; [8]
  IC50: > 40 µM
H661; [9]
  IC50: > 40 µM
NB4; [10]
  IC50: > 40 µM
HL60; [11]
  IC50: > 40 µM

## COc1cc(/C=C/C(=O)CC(=O)/C=C/c2ccc(O)c(OC)c2)ccc1O [Curcumin, reference compound]
A549; [8]
  IC50: > 20 µM
H661; [9]
  IC50: > 20 µM
NB4; [10]
  IC50: > 20 µM
HL60; [11]
  IC50: > 20 µM

## c1ccc(C[Se][Se]Cc2ccccc2)cc1 [DBDS, dibenzyl diselenide]
[1]; HEK293 ATF4 reporter cells, 5.0 μM
  extracellular reduced thiols: increased levels of extracellular reduced thiols
[1]; all the tested cell lines, H1299 and HL60
  extracellular reduced thiols: highly effective

## CC(C)(C)c1cc(O)ccc1O [Tert-butyl hydroxyquinone, reference compound]
A549; A549 (Lung), compound alone, 24 h, '>' = dose approximation, read-out: IC50 values
  IC50: > 20 µM
H661; H661 (Lung), compound alone, '>' = dose approximation, read-out: IC50 values
  IC50: > 40 µM
H1299; [12]
  IC50: > 100 µM
NB4; NB4 (Leukemia), compound alone, 24 h, '>' = dose approximation, read-out: IC50 values
  IC50: > 20 µM
HL60; HL60 (Leukemia), compound alone, 24 h, '>' = dose approximation, read-out: IC50 values
  IC50: > 25 µM
MCF-7; [13]
  IC50: > 60 µM
[1]
  extracellular reduced thiols levels: induced
ATF4
  ATF4 activity: not effective
SLC7A11
  SLC7A11 expression: Increased SLC7A11 expression

## O=C(O)c1cc(/N=N/c2ccc(S(=O)(=O)Nc3ccccn3)cc2)ccc1O [Sulfasalazine]
[2]; chemical inhibition of cystine transport
  effect of co-treatment on cytotoxicity of sodium selenite and selenocystine: inhibition of cytotoxicity

## N[C@@H](C[Se][Se]C[C@H](N)C(=O)O)C(=O)O [Selenocystine, selenocystine]
A549; Homo sapiens, A549, alone, 24 h, read-out: Calculated IC50 values
  IC50: 8.7 µM
A549; Homo sapiens, A549, alone, read-out: Calculated IC50 values of selenocystine
  IC50: 8.7 µM
H661; Homo sapiens, NCI-H661, H661, alone, read-out: Calculated IC50 values
  IC50: 55.7 µM
H1299; Homo sapiens, NCI-H1299, H1299, alone, 24 h, read-out: Calculated IC50 values
  IC50: 22.7 µM
H1299; Homo sapiens, NCI-H1299, H1299, alone, read-out: Calculated IC50 values of selenocystine
  IC50: 22.7 µM
U1906E
  IC50: 2.18 µM
U1906L
  IC50: 17.8 µM
NB4; Homo sapiens, NB-4, NB4, alone, 24 h, read-out: Calculated IC50 values
  IC50: 44.1 µM
NB4; Homo sapiens, NB-4, NB4, alone, read-out: Calculated IC50 values of selenocystine
  IC50: 44.1 µM
HL60; Homo sapiens, HL-60, HL60, alone, 24 h, read-out: Calculated IC50 values
  IC50: 22.6 µM
HL60; Homo sapiens, HL-60, HL60, alone, read-out: Calculated IC50 values of selenocystine
  IC50: 22.6 µM
THP-1
  IC50: 0.92 µM
AML193
  IC50: 47 µM
HepG2
  IC50: 12.4 µM
Hep3B
  IC50: 74.7 µM
HUH7
  IC50: 92.7 µM
SHSY5-SY
  IC50: 115 µM
SNB-19
  IC50: 78.7 µM
8-MGBA
  IC50: 49.7 µM
LS174T
  IC50: 3.88 µM
HeLa
  IC50: 5.78 µM
MCF-7; Homo sapiens, MCF7, MCF-7, alone, 24 h, read-out: Calculated IC50 values
  IC50: 34.9 µM
MCF-7; Homo sapiens, MCF7, MCF-7, alone, read-out: Calculated IC50 values of selenocystine
  IC50: 34.9 µM
PANC-1
  IC50: 18.5 µM
A375
  IC50: 8.6 µM
IGROV1
  Calculated IC50 values: Non-toxic*
OV2008
  IC50: 6.98 µM
[3]
  toxic effects (body and organ weight at necropsy): No demonstrated toxic effects could be observed
[4]
  maximum plasma concentration (conservative estimation): 17.8 µM
[5]
  drug-induced toxic effects: no signs of drug-induced toxic effects were reported
[6]
  IC50: 35.4 µM
[7]
  IC50: 300 µM

## Tunicamycin [reference compound]
H1299; [12]
  IC50: > 20 µM
MCF-7; [13]
  IC50: > 5 µM
ATF4
  ATF4 activity: Increased ATF4 activity
SLC7A11
  SLC7A11 expression: Increased SLC7A11 expression

## c1ccc([Te][Te]c2ccccc2)cc1 [diphenyl ditelluride]
ATF4
  ATF4 activity: Increased ATF4 activity

## c1ccc(SSc2ccccc2)cc1 [Phenyl disulfide]
A549; [8]
  IC50: > 40 µM
H661; [9]
  IC50: > 20 µM
NB4; [10]
  IC50: > 20 µM
HL60; [11]
  IC50: > 40 µM

## N[C@@H](CCC(=O)O)C(=O)[O-].[Na+] [mono-sodium glutamate]
[1]
  thiols efflux: inhibited thiols efflux

## C[S+]([O-])CCCCN=C=S (stereo not drawn) [Sulforaphen, reference compound]
A549; [8]
  IC50: > 10 µM
H661; [9]
  IC50: > 10 µM
NB4; [10]
  IC50: > 20 µM
HL60; [11]
  IC50: > 20 µM
[1]
  extracellular reduced thiols levels: induced
ATF4
  ATF4 activity: not effective

## CCCCS(=N)(=O)CCC(N)C(=O)O (stereo not drawn) [BSO]
[1]; MCF7, co-exposure, time-course
  impact on the DPDS-induced increase in thiols efflux: little or no impact

## CNC(=O)c1cc(Oc2ccc(NC(=O)Nc3ccc(Cl)c(C(F)(F)F)c3)cc2)ccn1 [sorafenib]
[1]
  thiols efflux: no effect

## CCOc1ccccc1-n1c(C(C)N2CCN(C(=O)COc3ccc(Cl)cc3)CC2)nc2ccccc2c1=O (stereo not drawn) [Erastin]
[2]
  effect of co-treatment on cytotoxicity of sodium selenite and selenocystine: inhibition of cytotoxicity

## O=C(O)[C@H]1CN[C@H](C(=O)O)C1 (relative stereo) [trans-2,4-PDC]
[1]
  thiols efflux: no effect
